The target in series [1] is T1, recombinant human transglutaminase 2 (Homo sapiens, UniProt P21980).
T1 construct: purchased Zedira T022
T1 sequence (P21980 1-687): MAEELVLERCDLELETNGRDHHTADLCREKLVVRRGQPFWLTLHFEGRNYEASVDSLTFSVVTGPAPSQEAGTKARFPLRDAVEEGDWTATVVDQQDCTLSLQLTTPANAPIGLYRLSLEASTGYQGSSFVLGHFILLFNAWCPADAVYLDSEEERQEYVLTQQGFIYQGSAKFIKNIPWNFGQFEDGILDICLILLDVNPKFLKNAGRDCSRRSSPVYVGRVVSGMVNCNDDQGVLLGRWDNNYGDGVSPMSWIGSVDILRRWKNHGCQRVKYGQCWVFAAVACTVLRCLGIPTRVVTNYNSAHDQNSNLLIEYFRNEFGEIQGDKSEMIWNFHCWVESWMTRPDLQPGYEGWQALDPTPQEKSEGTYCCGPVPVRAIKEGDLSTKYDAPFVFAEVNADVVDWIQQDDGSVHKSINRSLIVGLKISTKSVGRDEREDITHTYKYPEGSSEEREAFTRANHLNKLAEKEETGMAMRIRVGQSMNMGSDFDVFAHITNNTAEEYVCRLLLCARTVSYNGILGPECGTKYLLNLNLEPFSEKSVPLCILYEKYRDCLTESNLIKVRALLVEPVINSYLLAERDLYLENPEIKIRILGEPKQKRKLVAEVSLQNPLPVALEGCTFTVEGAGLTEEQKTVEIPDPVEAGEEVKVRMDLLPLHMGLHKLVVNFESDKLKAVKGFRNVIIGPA
The series is described as follows: Transglutaminase assay (DCC-assay): incorporation of dansylcadaverine into dimethylcasein. The format is biochemical. The note with it: recombinant human TG2 10 nM; dansylcadaverine incorporation into dimethylcasein; read-out: IC50 TG2. In outline: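 IC50 is the inhibitor level that blocks 50% of initial activity. Activity is the fluorescence slope (λex 330, λem 500 nm) between 20 and 30 min of a 37 °C run, relative to a 2% DMSO control. The enzyme is recombinant human tissue transglutaminase, 10 nM final, tested against a 1:2 inhibitor dilution series in a pH 8.0 mix with 10 mM CaCl2, 10 mM glutathione, 16.7 µM dansylcadaverine and 4 µM N,N-dimethylcasein.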

The nature of series [2]: logD by shake flask method (octanol / PBS pH 7.4, HPLC). The format is physicochemical. Particulars: octanol / PBS pH 7.4, shake flask. In outline: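 LogD obtained by HPLC measurement of how the compound distributes between PBS (pH 7.4) and octanol in a shake-flask experiment.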
The nature of series [3]: Caco-2 permeability assay (CacoReady kit). The format is in vitro ADME. Particulars: human, Caco-2, Caco-2 barrier, CacoReady kit; above 1×10^−6 cm/s classified as permeable. In outline:
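Intestinal permeability modelled with kit-supplied Caco-2 barriers, run as the maker specifies; each compound reported as Papp.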
(Caco-2 cells form a polarised layer with tight junctions and transporters.)

The term IC50 denotes the point on the concentration scale where inhibition reaches its midpoint. In general, logD refers to lipophilicity at a set pH, counting ionised and neutral species. Higher therefore signals higher lipophilicity. One may read the Papp as the rate of passage across a membrane or cell layer, normalised by area and donor concentration. Low readings indicate slow passage, high ones fast passage.

Structures are written as SMILES. Bounds are passed on as bounds.

On to `CNC(=O)C(=O)CC[C@H](NC(=O)c1cc2ccccc2o1)C(=O)Nc1cccn(CC(=O)NC2C3CCCC2CC3)c1=O` (stereo partly drawn) [II-171, (2S)-2-(benzofuran-2-carboxamido)-N1-(1-(2-(bicyclo[3.2.1]octan-8-ylamino)-2-oxoethyl)-2-oxo-1,2-dihydropyridin-3-yl)-N6-methyl-5-oxohexanediamide], for which the IC50 in series [1] is below 40 nM. This compound also had a log distribution coefficient (logD) in series [2] below 1. For the same compound, the apparent permeability coefficient (Papp) in series [3] was 1 to 10 ×10⁻⁶ cm/s.
For `CNC(=O)C(=O)CC[C@H](NC(=O)c1c(C)noc1C)C(=O)Nc1cccn(CC(=O)NC2C3CCCC2CC3)c1=O` (stereo partly drawn) [II-172, (2S)-N1-(1-(2-(bicyclo[3.2.1]octan-8-ylamino)-2-oxoethyl)-2-oxo-1,2-dihydropyridin-3-yl)-2-(3,5-dimethylisoxazole-4-carboxamido)-N6-methyl-5-oxohexanediamide] the same measures were 40 to 400 nM, below 1 and 1 to 10 ×10⁻⁶ cm/s.
On the same counts, the results for `CNC(=O)C(=O)CC[C@H](NC(=O)c1cncnc1C)C(=O)Nc1cccn(CC(=O)NC2C3CC4CC2CC(C(=O)O)(C4)C3)c1=O` (stereo partly drawn) [II-173, (S)-N1-(1-(2-(5-carboxy-2-aminoadamantane)-2-oxoethyl)-2-oxo-1,2-dihydropyridin-3-yl)-N6-methyl-2-(4-methylpyrimidine-5-carboxamido)-5-oxohexanediamide] are 40 to 400 nM, below 1 and below 1 ×10⁻⁶ cm/s.
For `CNC(=O)C(=O)CC[C@H](NC(=O)C1CCc2ccccc2C1)C(=O)Nc1cccn(CC(=O)NC2C3CC4CC2CC(C(=O)N(C)C)(C4)C3)c1=O` (stereo partly drawn) [II-174, (2S)-N1-(1-(2-(4-aminoadamantane-N,N-dimethyl-1-carboxamide)-2-oxoethyl)-2-oxo-1,2-dihydropyridin-3-yl)-N6-methyl-5-oxo-2-(1,2,3,4-tetrahydronaphthalene-2-carboxamido)hexanediamide] the same measures were 40 to 400 nM, below 1 and below 1 ×10⁻⁶ cm/s.
In the case of `CC(C)(C)NC(=O)C(=O)CC[C@H](NC(=O)[C@@H]1CN2CCN1CC2)C(=O)Nc1cccn(CC(=O)NC2C3CC4CC(C3)CC2C4)c1=O` (stereo partly drawn) [II-175, (S)-2-((S)-1,4-diazabicyclo[2.2.2]octane-2-carboxamido)-N6-tert-butyl-N1-(1-(2-(2-adamantylamino)-2-oxoethyl)-2-oxo-1,2-dihydropyridin-3-yl)-5-oxohexanediamide], the IC50 in series [1] lay within 400 to 2500 nM. In series [2], this compound gave a logD of 1 to 3. In series [3], the apparent permeability (Papp) was below 1 ×10⁻⁶ cm/s.
On the same counts, the results for `CC(C)(C)NC(=O)C(=O)CC[C@H](NC(=O)c1c[nH]c2ccccc12)C(=O)Nc1cccn(CC(=O)NC2C3CC4CC(C3)CC2C4)c1=O` (stereo partly drawn) [II-176, (S)-N1-tert-butyl-5-(1H-indole-3-carboxamido)-N6-(1-(2-(2-adamantylamino)-2-oxoethyl)-2-oxo-1,2-dihydropyridin-3-yl)-2-oxohexanediamide] are 400 to 2500 nM, 3 to 5 and 1 to 10 ×10⁻⁶ cm/s.
For `Cc1cn2c(C(=O)N[C@@H](CCC(=O)C(=O)NC(C)(C)C)C(=O)Nc3cccn(CC(=O)NC4C5CC6CC(C5)CC4C6)c3=O)csc2n1` (stereo partly drawn) [II-177, (S)-N1-tert-butyl-N6-(1-(2-(2-adamantylamino)-2-oxoethyl)-2-oxo-1,2-dihydropyridin-3-yl)-5-(6-methylimidazo[2,1-b]thiazole-3-carboxamido)-2-oxohexanediamide], the IC50 in series [1] fell in the range of 400 to 2500 nM. This compound had a logD in series [2] of 3 to 5. The Papp in series [3] is 1 to 10 ×10⁻⁶ cm/s.
On the same counts, the results for `O=C(Cn1cccc(NC(=O)[C@H](CCC(=O)C(=O)NC2CCCC2)NC(=O)c2nc3ccccc3s2)c1=O)N[C@@H]1C[C@@H]2CC[C@H]1C2` [II-178, (S)-2-(benzo[d]thiazole-2-carboxamido)-N1-(1-(2-((1S,2R,4R)-bicyclo[2.2.1]heptan-2-ylamino)-2-oxoethyl)-2-oxo-1,2-dihydropyridin-3-yl)-N6-cyclopentyl-5-oxohexanediamide] are 40 to 400 nM, 3 to 5 and 1 to 10 ×10⁻⁶ cm/s.
On the same counts, the results for `O=C(Cn1cccc(NC(=O)[C@H](CCC(=O)C(=O)NC2CCCC2)NC(=O)c2cn3ccsc3n2)c1=O)N[C@@H]1C[C@@H]2CC[C@H]1C2` [II-179, (S)-N1-(1-(2-((1S,2R,4R)-bicyclo[2.2.1]heptan-2-ylamino)-2-oxoethyl)-2-oxo-1,2-dihydropyridin-3-yl)-N6-cyclopentyl-2-(imidazo[2,1-b]thiazole-6-carboxamido)-5-oxohexanediamide] are 400 to 2500 nM, 1 to 3 and 1 to 10 ×10⁻⁶ cm/s.
For `O=C(Cn1cccc(NC(=O)[C@H](CCC(=O)C(=O)NC2CCCC2)NC(=O)c2cnc3ccc(OC(F)(F)F)cc3c2O)c1=O)N[C@@H]1C[C@@H]2CC[C@H]1C2` [II-180, (S)-N1-(1-(2-((1S,2R,4R)-bicyclo[2.2.1]heptan-2-ylamino)-2-oxoethyl)-2-oxo-1,2-dihydropyridin-3-yl)-N6-cyclopentyl-2-(4-hydroxy-6-(trifluoromethoxy)quinoline-3-carboxamido)-5-oxohexanediamide] the same measures were 400 to 2500 nM, 3 to 5 and below 1 ×10⁻⁶ cm/s.
As to `O=C(Cn1cccc(NC(=O)[C@H](CCC(=O)C(=O)NC2CCCCC2)NC(=O)c2cc3ccccc3nn2)c1=O)NC12CC(C1)C2` [II-181, (S)-N1-(1-(2-(bicyclo[1.1.1]pentan-1-ylamino)-2-oxoethyl)-2-oxo-1,2-dihydropyridin-3-yl)-2-(cinnoline-3-carboxamido)-N6-cyclohexyl-5-oxohexanediamide], the concentration for half-maximal inhibition (IC50) in series [1] was in the range of 400 to 2500 nM. The compound also returned a pH-dependent lipophilicity (logD) in series [2] of 1 to 3. The compound also yielded a Papp in series [3] below 1 ×10⁻⁶ cm/s.
On the same counts, the results for `CCc1c(C(=O)N[C@@H](CCC(=O)C(=O)NC2CCCCC2)C(=O)Nc2cccn(CC(=O)NC34CC(C3)C4)c2=O)oc2ccccc12` [II-182, (S)-N1-(1-(2-(bicyclo[1.1.1]pentan-1-ylamino)-2-oxoethyl)-2-oxo-1,2-dihydropyridin-3-yl)-N6-cyclohexyl-2-(3-ethylbenzofuran-2-carboxamido)-5-oxohexanediamide] are 40 to 400 nM, 1 to 3 and 1 to 10 ×10⁻⁶ cm/s.
On the same counts, the results for `CCn1c(C(=O)N[C@@H](CCC(=O)C(=O)NC2CCCCC2)C(=O)Nc2cccn(CC(=O)NC34CC(C3)C4)c2=O)cc2ccccc21` [II-183, (S)-N1-(1-(2-(bicyclo[1.1.1]pentan-1-ylamino)-2-oxoethyl)-2-oxo-1,2-dihydropyridin-3-yl)-N6-cyclohexyl-2-(1-ethyl-1H-indole-2-carboxamido)-5-oxohexanediamide] are 40 to 400 nM, 1 to 3 and 1 to 10 ×10⁻⁶ cm/s.
`Cc1nc2ncccc2cc1C(=O)N[C@@H](CCC(=O)C(=O)NC1CCCCC1)C(=O)Nc1cccn(CC(=O)NC23CC(C2)C3)c1=O` [II-184, (S)-N1-(1-(2-(bicyclo[1.1.1]pentan-1-ylamino)-2-oxoethyl)-2-oxo-1,2-dihydropyridin-3-yl)-N6-cyclohexyl-2-(2-methyl-1,8-naphthyridine-3-carboxamido)-5-oxohexanediamide]: the IC50 in series [1] was 400 to 2500 nM. Moreover, the logD in series [2] was 1 to 3. This compound also displayed an apparent permeability (Papp) in series [3] below 1 ×10⁻⁶ cm/s.
For `CNC(=O)C(=O)CC[C@H](NC(=O)c1ccc2c(c1)CCCN2)C(=O)Nc1cccn(CC(=O)NC23CCC(C2)C3)c1=O` [II-185, (S)-N1-(1-(2-(bicyclo[2.1.1]hexan-1-ylamino)-2-oxoethyl)-2-oxo-1,2-dihydropyridin-3-yl)-N6-methyl-5-oxo-2-(1,2,3,4-tetrahydroquinoline-6-carboxamido)hexanediamide] the same measures were 400 to 2500 nM, below 1 and below 1 ×10⁻⁶ cm/s.
For `CNC(=O)C(=O)CC[C@H](NC(=O)c1ccc2c(c1)CC(=O)NC2)C(=O)Nc1cccn(CC(=O)NC2(C(=O)O)C3CC4CC2CC(C(F)(F)F)(C4)C3)c1=O` (stereo partly drawn) [II-186, (S)-N1-(1-(2-(2-carboxy-2-amino-5-(trifluoromethyl)adamantane)-2-oxoethyl)-2-oxo-1,2-dihydropyridin-3-yl)-N6-methyl-5-oxo-2-(3-oxo-1,2,3,4-tetrahydroisoquinoline-6-carboxamido)hexanediamide] the same measures were 400 to 2500 nM, below 1 and below 1 ×10⁻⁶ cm/s.
